According to US9315494B2, “Alkyl-amide-substituted pyridyl compounds useful as modulators of IL-12, IL-23 and/or IFNα responses” (Bristol-Myers Squibb Company, priority 2012, dated 2016):
Where two headings read alike, the source gives them in different places.

What was measured:
[1] = test system: IFNα-stimulated STAT-dependent luciferase reporter in Kit225 T cells; experiment: Kit225 T cell assay, IFNα stimulated STAT-dependent luciferase reporter; format: cell-based, human
Summary of the method: (§1)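 Kit225 T cells carrying a stably integrated STAT-luciferase reporter, in RPMI with 10% heat-inactivated FBS, were stimulated with 20 ng/mL IL-23 or 200 U/mL IFNα for 5-6 h. Readout was luminescence from the luciferase reporter.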

[2] = test system: IL-23-stimulated STAT-dependent luciferase reporter in Kit225 T cells; experiment: Kit225 T cell assay, IL-23 stimulated STAT-dependent luciferase reporter; format: cell-based, human; conditions: Kit225 T cells, 20 ng/mL human recombinant IL-23, 5-6 hours, luciferase; read-out: IL23 (Kit225 T Cell Inhibition Data)
Summary of the method: as §1

[3] = molecular target: T1, recombinantly expressed His-tagged protein corresponding to amino acids 575-869 of human Tyk2 (Homo sapiens, UniProt P29597); experiment: Probe displacement assay (scintillation proximity, [3H] probe); format: binding; conditions: 2.5 nM Tyk2 (575-869), 40 nM radiolabeled probe, 30 minutes at room temperature
T1 construct: corresponding to amino acids 575-869 of human Tyk2; made in house
Procedure: The probe displacement assay is conducted as follows: In a […], test compounds along with recombinantly expressed His-tagged protein corresponding to amino acids 575-869 of human Tyk2 (sequence shown below) at 2.5 nM, 40 nM ((R)-N-(1-(3-(8-methyl-5-(methylamino)-8H-imidazo[4,5-d]thiazolo[5,4-b]pyridin-2-yl)phenyl)ethyl)-2-([^3H]methylsulfonyl)benzamide) (preparation described below) and 80 μg/mL Copper His-Tag scintillation proximity assay beads (Perkin Elmer, Catalog #RPNQ0095) in 50 mM HEPES, pH 7.5, containing 100 μg/mL bovine serum albumin and 5% DMSO were incubated for 30 minutes at room temperature. The amount of radiolabeled probe (preparation described below) bound to Tyk2 was then quantified by scintillation counting, and the inhibition by the test compound calculated by comparison to wells either with no inhibitor (0% inhibition) or without Tyk2 (100% inhibition).
Protein Sequence of recombinant Hig-tagged Tyk2 (575-869):
The preparation of radiolabeled probe, (R)-N-(1-(3-(8-methyl-5-(methylamino)-8H-imidazo[4,5-d]thiazolo[5,4-b]pyridin-2-yl)phenyl)ethyl)-2-([^3H]methylsulfonyl)benzamide, was performed as described below: […]

[4] = Kit225 T cells, 200 U/mL human recombinant IFNα, 5-6 hours, luciferase, read-out: IFNα (Kit225 T Cell Inhibition Data)

T1 sequence (P29597 575-869): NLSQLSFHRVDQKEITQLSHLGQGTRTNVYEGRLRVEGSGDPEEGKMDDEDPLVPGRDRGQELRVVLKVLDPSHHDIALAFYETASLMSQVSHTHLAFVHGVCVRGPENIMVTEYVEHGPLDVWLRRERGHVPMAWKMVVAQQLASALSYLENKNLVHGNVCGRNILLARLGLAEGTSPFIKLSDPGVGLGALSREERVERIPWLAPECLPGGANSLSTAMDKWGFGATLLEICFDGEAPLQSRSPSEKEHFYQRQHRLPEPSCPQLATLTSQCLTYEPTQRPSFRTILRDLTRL

| SMILES | IC50 [1, 4] | IC50 [2] | EC50 [3] | IC50 ([1]; Homo sapiens, KIT225, read-out: IFNα (Kit225 T Cell Inhibition Data)) |
| --- | --- | --- | --- | --- |
| CNC(=O)c1cnc(Nc2ccc3ccccc3n2)cc1Nc1ccccc1S(C)(=O)=O [Example 2] | 30 nM | 57.4 nM | 13.2 nM | – |
| CNC(=O)c1cnc(Nc2cncc(C)n2)cc1Nc1ccccc1S(C)(=O)=O [Example 42] | 140 nM | 260 nM | 8.2 nM | – |
| CNC(=O)c1cnc(Nc2cc(C#N)ccn2)cc1Nc1ccc(S(C)(=O)=O)cc1OC [Example 43] | 870 nM | 173 nM | 68.7 nM | – |
| CNC(=O)c1cnc(Nc2ccc(S(C)(=O)=O)cn2)cc1Nc1ccccc1S(C)(=O)=O [Example 61] | 1030 nM | 3530 nM | 16.4 nM | – |
| CNC(=O)c1cnc(Nc2ccc(F)cn2)cc1Nc1ccccc1[S+](C)[O-] (stereo not shown) [Example 62] | 1290 nM | 898 nM | 84.5 nM | – |
| CNC(=O)c1cnc(Nc2ccc(F)cn2)cc1Nc1ccccc1CCO [Example 66] | 3170 nM | 1770 nM | 14.8 nM | – |
| CNC(=O)c1cnc(Nc2cccc(OC)n2)cc1Nc1ccccc1C(N)=O [Example 73] | 290 nM | 506 nM | 12 nM | – |
| CNC(=O)c1cnc(Nc2ccc(CO)cn2)cc1Nc1ccccc1C(N)=O [Example 79] | 1850 nM | 4100 nM | 5.5 nM | – |
| CNC(=O)c1cnc(Nc2ccc(Cl)cn2)cc1Nc1ccccc1C(N)=O [Example 80] | 460 nM | 320 nM | 4.4 nM | – |
| CNC(=O)c1cnc(Nc2ccc(O)cn2)cc1Nc1ccccc1C(N)=O [Example 81] | 4490 nM | 5580 nM | 22.7 nM | – |
| CNC(=O)c1cnc(Nc2ccc3ccccc3n2)cc1Nc1ccccc1C(N)=O [Example 87] | 160 nM | 257 nM | 3.8 nM | – |
| CNC(=O)c1cnc(Nc2cc(CO)ccn2)cc1Nc1ccccc1C(N)=O [Example 94] | 3430 nM | 3560 nM | 9.5 nM | – |
| CNC(=O)c1cnc(Nc2ccc(N3CCOCC3)cn2)cc1Nc1ccc(Cl)cc1OC [Example 104] | 50 nM | 246 nM | 17.7 nM | – |
| CNC(=O)c1cnc(Nc2ccc(N3CCCC3=O)cn2)cc1Nc1ccc(Cl)cc1OC [Example 107] | 120 nM | 189 nM | 32.4 nM | – |
| CCc1cccc(Nc2cc(Nc3ccc(Cl)cc3OC)c(C(=O)NC)cn2)n1 [Example 125] | 9970 nM | 9680 nM | 436 nM | – |
| CNC(=O)c1cnc(Nc2ccc(C)cn2)cc1Nc1cc(F)cc(F)c1OC [Example 128] | 140 nM | 335 nM | 21.3 nM | – |
| CNC(=O)c1cnc(Nc2cc(C#N)ccn2)cc1Nc1cc(F)cc(F)c1OC [Example 134] | 130 nM | 314 nM | 9.9 nM | – |
| CNC(=O)c1cnc(Nc2cc(Cl)ccn2)cc1Nc1cc(F)cc(F)c1OC [Example 144] | 230 nM | 517 nM | 46.1 nM | – |
| CNC(=O)c1cnc(Nc2ccc(C#N)c(C)n2)cc1Nc1ccc(F)cc1OC [Example 152] | 370 nM | 499 nM | 40.6 nM | – |
| CNC(=O)c1cnc(Nc2cccc(-n3ccccc3=O)n2)cc1Nc1ccc(F)cc1OC [Example 165] | 6650 nM | 10700 nM | 779 nM | – |
| CNC(=O)c1cnc(Nc2cc(C#N)ccn2)cc1Nc1cccc(F)c1C(N)=O [Example 176] | 1020 nM | 1040 nM | 18.8 nM | – |
| CNC(=O)c1cnc(Nc2ccc(F)cn2)cc1Nc1cccc2ccccc12 [Example 188] | 6470 nM | 4300 nM | 557 nM | – |
| CNC(=O)c1cnc(Nc2ccc(F)cn2)cc1Nc1ccc(-c2ccccc2)cc1 [Example 194] | 8660 nM | 3220 nM | 349 nM | – |
| CNC(=O)c1cnc(Nc2ccc(F)cn2)cc1Nc1cc(Cl)ccc1OC [Example 203] | 1170 nM | 1460 nM | 53.5 nM | – |
| CNC(=O)c1cnc(Nc2ccc(F)cn2)cc1Nc1cc(F)cc(F)c1OC [Example 205] | 180 nM | 372 nM | 25.1 nM | – |
| CNC(=O)c1cnc(Nc2ccc(F)cn2)cc1Nc1ccc(N2CCOCC2)cc1 [Example 211] | 3150 nM | 4270 nM | 246 nM | – |

| SMILES | IC50 [1, 4] | IC50 [2] | EC50 [3] | IC50 ([1]; Homo sapiens, KIT225, read-out: IFNα (Kit225 T Cell Inhibition Data)) |
| --- | --- | --- | --- | --- |
| CNC(=O)c1cnc(Nc2ccc(N3CCOCC3)cn2)cc1Nc1ccccc1C [Example 217] | 1480 nM | 3310 nM | 291 nM | – |
| CNC(=O)c1cnc(Nc2ccc(N3CCOCC3)cn2)cc1Nc1ccccc1CCO [Example 224] | 4600 nM | 5610 nM | 597 nM | – |
| CNC(=O)c1cnc(Nc2ccc(N3CCOCC3)cn2)cc1Nc1ccccc1SC [Example 226] | 140 nM | 151 nM | 20.1 nM | – |
| CNC(=O)c1cnc(Nc2ccc(N3CCOCC3)cn2)cc1Nc1ccccc1OC(F)F [Example 228] | 140 nM | 144 nM | 36.7 nM | – |
| CNC(=O)c1ccc(Nc2cc(Nc3ccc(F)cn3)ncc2C(=O)NC)c(OC)c1 [Example 237] | 460 nM | 470 nM | 29.1 nM | – |
| CNC(=O)c1cnc(Nc2ccc(F)cn2)cc1Nc1ccc(C(=O)NCCO)cc1OC [Example 238] | 2360 nM | 4250 nM | 6.3 nM | – |
| CNC(=O)c1cnc(Nc2ccc(C(=O)NC3CC3)cn2)cc1Nc1ccc(Cl)cc1OC [Example 261] | 1370 nM | 2180 nM | 155 nM | – |
| CNC(=O)c1cnc(Nc2cc(C(=O)NCCOC)ccn2)cc1Nc1cc(F)cc(F)c1OC [Example 266] | 160 nM | 312 nM | 6.5 nM | – |
| CNC(=O)c1cnc(Nc2ccc3ccccc3n2)cc1NC1CCCC1 [Example 283] | – | – | 633 nM | 12500 nM |
| CNC(=O)c1cnc(Nc2ccc3ccccc3n2)cc1N[C@@H]1CCCC[C@@H]1C(N)=O [Example 286] | 1980 nM | 4220 nM | 106 nM | – |
| CNC(=O)c1cnc(Nc2ccc3ccccc3n2)cc1NC1CCCC1C(N)=O (stereo not shown) [Example 289] | 7300 nM | 12500 nM | 495 nM | – |
| [2H]C([2H])([2H])NC(=O)c1cnc(Nc2ccc(F)cn2)cc1Nc1ccccc1S(C)(=O)=O [Example 298] | 60 nM | 110 nM | 6.5 nM | – |
| CNC(=O)c1cnc(Nc2ccc(F)cn2)cc1Nc1ccccc1S(=O)(=O)N(C)C [Example 302] | 2090 nM | 4060 nM | 182 nM | – |
| CNC(=O)c1cnc(Nc2ccc(OC)cn2)cc1Nc1ccccc1S(C)(=O)=O [Example 434] | 50 nM | 100 nM | – | – |
| CNC(=O)c1cnc(Nc2ccc(N3CCCCC3)cn2)cc1Nc1ccccc1S(C)(=O)=O [Example 435] | 50 nM | 30 nM | – | – |
| CNC(=O)c1cnc(Nc2ccc(N3CCC(C)(O)CC3)cn2)cc1Nc1ccccc1S(C)(=O)=O [Example 436] | 120 nM | 240 nM | – | – |
| CNC(=O)c1cnc(Nc2ccn(C)n2)cc1Nc1ccccc1S(C)(=O)=O [Example 437] | 190 nM | 360 nM | – | – |
| CNC(=O)c1cnc(Nc2cc(C)n(C)n2)cc1Nc1ccccc1S(C)(=O)=O [Example 439] | 110 nM | 210 nM | – | – |
| CNC(=O)c1cnc(Nc2ccc(C#N)c(C)n2)cc1Nc1ccccc1S(C)(=O)=O [Example 440] | 260 nM | 250 nM | – | – |
| CNC(=O)c1cnc(Nc2ccc(N3CCCC3=O)cn2)cc1Nc1ccccc1S(C)(=O)=O [Example 441] | 240 nM | 460 nM | – | – |
| CNC(=O)c1cnc(Nc2ccn(C(C)C)n2)cc1Nc1ccccc1S(C)(=O)=O [Example 442] | 130 nM | 450 nM | – | – |
| CNC(=O)c1cnc(Nc2cc(C)cc(C)n2)cc1Nc1ccccc1S(C)(=O)=O [Example 443] | 20 nM | 50 nM | – | – |
| CCOc1ccc(Nc2cc(Nc3ccccc3S(C)(=O)=O)c(C(=O)NC)cn2)nn1 [Example 444] | 180 nM | 250 nM | – | – |
| CNC(=O)c1cnc(Nc2cc(C3CCC3)[nH]n2)cc1Nc1ccccc1S(C)(=O)=O [Example 445] | 320 nM | 530 nM | – | – |
| CNC(=O)c1cnc(Nc2ccn(-c3ccc(Cl)cc3)n2)cc1Nc1ccccc1S(C)(=O)=O [Example 446] | 180 nM | 150 nM | – | – |
| CNC(=O)c1cnc(Nc2cc(C)c(C#N)cn2)cc1Nc1ccccc1S(C)(=O)=O [Example 447] | 160 nM | 200 nM | – | – |
